Measured values published in PubChem BioAssay AID1259411 (Chemical Carcinogenesis Research Information System (CCRIS), 2018).
Activity calls are given as the source filed them. How the calls were made is not given here.

System: rodent carcinogenicity bioassays, tumor incidence
Test: CCRIS carcinogenicity studies
Procedure, shortened: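 NCI-built, expert-reviewed records of carcinogenicity and related test outcomes (mutagenicity, tumor promotion/inhibition) compiled from published and report sources, historical span 1985-2011, not updated.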

SMILES: CCCCOCCO
- carcinogen call (Species: MOUSE, Strain/Sex: B6C3F1/FEMALE, Route: INHALATION, Dose: 0, 62.5, 125, 250 PPM 6 HR/D 5D/WK FOR 104 WK (STUDY DURATION: 104 WK), Dose: 0, 62.5, 125, 250 PPM 6 HR/D 5D/WK FOR 104 WK (STUDY DURATION: 104 WK), Tumor Site: Type of Lesion: FORESTOMACH: SQUAMOUS CELL PAPILLOMA OR CARCINOMA): active; positive
- carcinogen call (Species: MOUSE, Strain/Sex: B6C3F1/MALE, Route: INHALATION, Dose: 0, 62.5, 125, 250 PPM 6 HR/D 5D/WK FOR 104 WK (STUDY DURATION: 104 WK), Dose: 0, 62.5, 125, 250 PPM 6 HR/D 5D/WK FOR 104 WK (STUDY DURATION: 104 WK), Tumor Site: Type of Lesion: LIVER: HEMANGIOSARCOMA, HEPATOCELLULAR CARCINOMA): active; positive
- carcinogen call (Species: RAT, Strain/Sex: F344/FEMALE, Route: INHALATION, Dose: 0, 31.2, 62.5, 125 PPM 6 HR/D 5D/WK FOR 104 WK (STUDY DURATION: 104 WK), Dose: 0, 31.2, 62.5, 125 PPM 6 HR/D 5D/WK FOR 104 WK (STUDY DURATION: 104 WK), Tumor Site: Type of Lesion: ADRENAL MEDULLA: BENIGN OR MALIGNANT PHEOCHROMOCYTOMA): equivocal
- carcinogen call (Species: RAT, Strain/Sex: F344/MALE, Route: INHALATION, Dose: 0, 31.2, 62.5, 125 PPM 6 HR/D 5D/WK FOR 104 WK (STUDY DURATION: 104 WK), Dose: 0, 31.2, 62.5, 125 PPM 6 HR/D 5D/WK FOR 104 WK (STUDY DURATION: 104 WK)): inactive; negative

SMILES: O=C([O-])c1cc(N=Nc2ccc(-c3ccc(N/N=c4/c(=O)cc/c(=N\Nc5cc(S(=O)(=O)[O-])ccc5[O-])c4=O)cc3)cc2)ccc1[O-].[Cu+2].[Na+].[Na+]
- carcinogen call (Species: RAT, Strain/Sex: F344/FEMALE, Route: ORAL, Dose: 0, 190, 375, 750, 1500, 3000 PPM IN DIET FOR 91 D (STUDY DURATION: 93 D), Dose: 0, 190, 375, 750, 1500, 3000 PPM IN DIET FOR 91 D (STUDY DURATION: 93 D), Tumor Site: Type of Lesion: LIVER: HEPATOCELLULAR CARCINOMA OR NEOPLASTIC NODULE, FOCI OF CELLULAR ALTERATION OR BASOPHILIC FOCI): active; positive
- carcinogen call (Species: RAT, Strain/Sex: F344/MALE, Route: ORAL, Dose: 0, 190, 375, 750, 1500, 3000 PPM IN DIET FOR 91 D (STUDY DURATION: 93 D), Dose: 0, 190, 375, 750, 1500, 3000 PPM IN DIET FOR 91 D (STUDY DURATION: 93 D), Tumor Site: Type of Lesion: LIVER: FOCI OF CELLULAR ALTERATION OR BASOPHILIC FOCI): active; positive

SMILES: OCC(Cl)(Cl)Cl
- carcinogen call (Species: MOUSE, Strain/Sex: B6C3F1/FEMALE, Route: INTRAPERITONEAL, Dose: 0, 1000 NMOL TOTAL DOSE, 1/3 AND 2/3 OF THE TOTAL DOSE ADMINISTERED AT 8 AND 15 DAYS OF AGE RESPECTIVELY, ANIMALS TERMIN): inactive; negative
- carcinogen call (Species: MOUSE, Strain/Sex: B6C3F1/FEMALE, Route: INTRAPERITONEAL, Dose: 0, 2000 NMOL TOTAL DOSE, 3/7 AND 4/7 OF THE TOTAL DOSE ADMINISTERED AT 8 AND 15 DAYS OF AGE RESPECTIVELY, ANIMALS TERMIN): inactive; negative
- carcinogen call (Species: MOUSE, Strain/Sex: B6C3F1/MALE, Route: INTRAPERITONEAL, Dose: 0, 1000 NMOL TOTAL DOSE, 1/3 AND 2/3 OF THE TOTAL DOSE ADMINISTERED AT 8 AND 15 DAYS OF AGE RESPECTIVELY, ANIMALS TERMIN): inactive; negative
- carcinogen call (Species: MOUSE, Strain/Sex: B6C3F1/MALE, Route: INTRAPERITONEAL, Dose: 0, 2000 NMOL TOTAL DOSE, 3/7 AND 4/7 OF THE TOTAL DOSE ADMINISTERED AT 8 AND 15 DAYS OF AGE RESPECTIVELY, ANIMALS TERMIN): inactive; negative

SMILES: CC(=O)C=O
- carcinogen call (Species: MOUSE, Strain/Sex: CD-1/FEMALE, Route: DERMAL, Dose: 0, 50 UMOL/0.1 ML DMSO 2/WK FOR 5 WK FOLLOWED 1 WK LATER BY 0.1 ML ACETONE 2/WK FOR 47 WK (STUDY DURATION: 52 WK)): inactive; negative

SMILES: O=[N+]([O-])c1ccc(N=Nc2c(O)ccc3ccccc23)c([N+](=O)[O-])c1
- carcinogen call (Species: MOUSE, Strain/Sex: ICR/FEMALE, Route: DERMAL, Dose: 0, 1 MG IN 0.1 ML DISTILLED WATER 2/WK FOR A MEAN TOTAL DOSE OF 143.7 MG (STUDY DURATION: 18 MO)): inactive; negative
- carcinogen call (Species: MOUSE, Strain/Sex: ICR/MALE, Route: DERMAL, Dose: 0, 1 MG IN 0.1 ML DISTILLED WATER 2/WK FOR A MEAN TOTAL DOSE OF 143.7 MG (STUDY DURATION: 18 MO)): inactive; negative

SMILES: CCOC(=O)NO
- carcinogen call (Species: MOUSE, Strain/Sex: C57BL, Route: INTRAPERITONEAL, Dose: 1.18 MG/G 10X AT WEEKLY INTERVALS, Tumor Site: Type of Lesion: THYMUS GLAND: LYMPHOSARCOMA, LUNG: ADENOMA): active; positive
- carcinogen call (Species: MOUSE, Strain/Sex: STRAIN-A/FEMALE, Route: INTRAPERITONEAL, Dose: 4000 NMOL/G, Tumor Site: Type of Lesion: LUNG: ADENOMA): active; positive
